From the supplement of paper PMC9265050, “Inhibition of RNA Binding in SND1 Increases the Levels of miR-1-3p and Sensitizes Cancer Cells to Navitoclax” (Cancers, 2022)

Tested on: SW480
Test: drug sensitivity score (DSS, integrated dose-response area); higher = more sensitive (stronger viability reduction); extreme values may be limits of the assay
Procedure, shortened: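 Viability of induced SW480 cells carrying control or SND1-targeting shRNA was read by CellTiter-Glo 72 h after plating at 1000 cells per well onto 384-well plates holding 525 small-molecule inhibitors at five concentrations. Induction used 0.1 µg/mL doxycycline for 7 days. Each drug sensitivity score integrates the area under a fitted non-linear dose–response model.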

[1] = shRNA: SND1 shRNA1 (SND1 silenced)
[2] = shRNA: SND1 shRNA2 (SND1 silenced)
[3] = shRNA: control shRNA (non-targeting)

SMILES: O=C1NC(=O)[C@@H](c2cn3c4c(cccc24)CCC3)[C@@H]1c1c[nH]c2ccccc12 [Tivantinib]
- drug sensitivity score [1]: 6.4 DSS
- drug sensitivity score [2]: 4 DSS
- drug sensitivity score [3]: 5.4 DSS

SMILES: COc1cc2nccc(Oc3ccc(NC(=O)Nc4cc(C)on4)c(Cl)c3)c2cc1OC [Tivozanib]
- drug sensitivity score [1]: 3.8 DSS
- drug sensitivity score [2]: 3.6 DSS
- drug sensitivity score [3]: 5 DSS

SMILES: C[C@@H]1CCN(C(=O)CC#N)C[C@@H]1N(C)c1ncnc2[nH]ccc12 [Tofacitinib]
- drug sensitivity score [1]: 0 DSS
- drug sensitivity score [2]: 0 DSS
- drug sensitivity score [3]: 0 DSS

SMILES: CC[C@@]1(O)C(=O)OCc2c1cc1n(c2=O)Cc2cc3c(CN(C)C)c(O)ccc3nc2-1 [Topotecan]
- drug sensitivity score [1]: 11.3 DSS
- drug sensitivity score [2]: 8.8 DSS
- drug sensitivity score [3]: 9.7 DSS

SMILES: CN(C)CCOc1ccc(/C(=C(/CCCl)c2ccccc2)c2ccccc2)cc1 [Toremifene]
- drug sensitivity score [1]: 2.6 DSS
- drug sensitivity score [2]: 1.7 DSS
- drug sensitivity score [3]: 3.1 DSS

SMILES: CC(C)C[C@@H](C(=O)N[C@H](C(=O)OC1CCCC1)c1ccccc1)[C@H](O)C(=O)NO [Tosedostat]
- drug sensitivity score [1]: 4.4 DSS
- drug sensitivity score [2]: 3.2 DSS
- drug sensitivity score [3]: 3.2 DSS

SMILES: Cc1cc(Nc2cc(N3CCN(C)CC3)nc(Sc3ccc(NC(=O)C4CC4)cc3)n2)n[nH]1 [Tozasertib]
- drug sensitivity score [1]: 8.6 DSS
- drug sensitivity score [3]: 4.8 DSS

SMILES: CC(=O)Nc1cccc(-n2c(=O)n(C3CC3)c(=O)c3c(Nc4ccc(I)cc4F)n(C)c(=O)c(C)c32)c1 [Trametinib]
- drug sensitivity score [1]: 19.3 DSS
- drug sensitivity score [2]: 12.7 DSS
- drug sensitivity score [3]: 8.1 DSS

SMILES: CC1=C(/C=C/C(C)=C/C=C/C(C)=C/C(=O)O)C(C)(C)CCC1 [Tretinoin]
- drug sensitivity score [1]: 0 DSS
- drug sensitivity score [2]: 0 DSS
- drug sensitivity score [3]: 0 DSS

SMILES: NC(=S)N/N=C/c1ncccc1N [Triapine]
- drug sensitivity score [1]: 2.8 DSS
- drug sensitivity score [3]: 2.4 DSS

SMILES: O=C(CCCCCCC(=O)Nc1ccc([C@H]2O[C@@H](CSc3nc(-c4ccccc4)c(-c4ccccc4)o3)C[C@@H](c3ccc(CO)cc3)O2)cc1)NO [Tubacin]
- drug sensitivity score [1]: 4.1 DSS
- drug sensitivity score [2]: 2.7 DSS
- drug sensitivity score [3]: 6.2 DSS

SMILES: CN1CCc2c(c3ccccc3n2Cc2ccc(C(=O)NO)cc2)C1 [Tubastatin A]
- drug sensitivity score [1]: 4.3 DSS
- drug sensitivity score [2]: 5 DSS
- drug sensitivity score [3]: 6.4 DSS

SMILES: CN[C@@H]1C[C@H]2O[C@@](C)([C@@H]1OC)n1c3ccccc3c3c4c(c5c6ccccc6n2c5c31)C(=O)N[C@H]4O [UCN-01]
- drug sensitivity score [1]: 24 DSS
- drug sensitivity score [2]: 25 DSS
- drug sensitivity score [3]: 25.4 DSS

SMILES: COC(=O)c1ccc2c(c1)[nH]c1ncnc(NCCCN3CCCCC3)c12 [UM729]
- drug sensitivity score [1]: 1.8 DSS
- drug sensitivity score [2]: 2.8 DSS
- drug sensitivity score [3]: 3.3 DSS

SMILES: O=C(O)CSc1cc(NS(=O)(=O)c2ccc(Br)cc2)c2ccccc2c1O [UMI-77]
- drug sensitivity score [1]: 14.5 DSS
- drug sensitivity score [2]: 13.4 DSS
- drug sensitivity score [3]: 15.8 DSS

SMILES: COc1cc2c(NC3CCN(C(C)C)CC3)nc(C3CCCCC3)nc2cc1OCCCN1CCCC1 [UNC0638]
- drug sensitivity score [1]: 9.1 DSS
- drug sensitivity score [2]: 6.5 DSS
- drug sensitivity score [3]: 9.7 DSS

SMILES: COc1cc2c(NC3CCN(C(C)C)CC3)nc(N3CCC(F)(F)CC3)nc2cc1OCCCN1CCCC1 [UNC0642]
- drug sensitivity score [1]: 4.7 DSS
- drug sensitivity score [2]: 8.7 DSS
- drug sensitivity score [3]: 8.4 DSS

SMILES: O=C(c1ccc(C(=O)N2CCC(N3CCCC3)CC2)c(Nc2ccccc2)c1)N1CCC(N2CCCC2)CC1 [UNC1215]
- drug sensitivity score [1]: 2.6 DSS
- drug sensitivity score [2]: 1.9 DSS
- drug sensitivity score [3]: 1.1 DSS

SMILES: CCCCNc1ncc(C(=O)NCc2ccc(-n3ccnc3)cc2)c(NC2CCC(O)CC2)n1 (stereo not given) [UNC2881]
- drug sensitivity score [1]: 0 DSS
- drug sensitivity score [2]: 0 DSS
- drug sensitivity score [3]: 0 DSS

SMILES: NC(=O)c1cccc(-c2cccc(OC(=O)NC3CCCCC3)c2)c1 [URB597]
- drug sensitivity score [1]: 0.2 DSS
- drug sensitivity score [3]: 2.6 DSS

SMILES: CC(C)Nc1cc(-c2c[nH]c(C(=O)N[C@H](CO)c3cccc(Cl)c3)c2)c(Cl)cn1 [Ulixertinib]
- drug sensitivity score [1]: 10.2 DSS
- drug sensitivity score [2]: 2.3 DSS
- drug sensitivity score [3]: 7.6 DSS
